From patent US20220370416A1, “COMPOUNDS AND METHODS FOR TARGETED DEGRADATION OF KRAS” (Arvinas Operations, Inc., priority 2020, published 2022)

Key:
HiBit-KRAS^G12C [1] = target: T1, HiBit-KRAS^G12C (Homo sapiens, UniProt P01116, G12C); assay: HiBit degradation assay in MiaPaCa-2 HiBit-KRas^G12C cells; type: cell-based; settings: 24 hours
Outline: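 MiaPaCa-2 cells with CRISPR N-terminal HiBit knock-in on one endogenous KRAS^G12C allele, treated 24 hours at 37° C with compound titrated 10 μM to 20 nM (0.1% or 0.5% DMSO). Lytic HiBit luminescence normalized to DMSO, 4-parameter fit giving DC50 and Dmax; points cytotoxic to […] cells by alamar blue excluded.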

HiBit-KRAS^G12C [2] = target: T1, HiBit-KRAS^G12C; assay: HiBit degradation assay in SW1573 HiBit-KRas^G12C cells; type: cell-based; set-up: expressed in transfected cells; host or cells: SW1573 (clone E6), modified pcDNA3.1 vector, TK promoter; settings: 24 hours
Outline: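 SW1573 cells stably expressing N-terminally HiBit-tagged KRAS G12C, under the TK promoter, were treated 24 h at 37 °C with 10 μM to 20 nM compound in 0.1% or 0.5% DMSO. Residual HiBit luminescence normalised to DMSO and fitted with a 4-parameter model for DC50 and Dmax. Points with ≥50% viability loss (alamar blue) excluded.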

[3] = MIA PaCa-2, MiaPaCa-2 HiBit-KRas^G12C cells, 0.1% DMSO, maximum degradation, read-out: KRas^G12C-HiBiT (MiaPaCa; 0.1% DMSO) DMax
[4] = MIA PaCa-2, MiaPaCa-2 HiBit-KRas^G12C cells, 0.5% DMSO, maximum degradation, read-out: KRas^G12C-HiBiT (MiaPaCa; 0.5% DMSO) DMax
[5] = SW1573, SW1573 HiBit-KRas^G12C, 0.1% DMSO, read-out: KRas^G12C-HiBit (SW1573; 0.1% DMSO) Dmax**
[6] = SW1573, SW1573 HiBit-KRas^G12C, 0.5% DMSO, read-out: KRas^G12C-HiBiT (SW1573; 0.5% DMSO) Dmax**
[7] = SW1573 HiBit-KRas^G12C, 0.1% DMSO, read-out: KRas^G12C-HIBit (SW1573; 0.1% DMSO) DC50*
[8] = read-out: KRas^G12C-HiBiT (MiaPaCa; 0.5% DMSO) IC50, MiaPaCa-2 HiBit-KRas^G12C cells, 0.5% DMSO
[9] = read-out: KRas^G12C-HiBiT (SW1573; 0.5% DMSO) IC50***, SW1573 HiBit-KRas^G12C, 0.5% DMSO

T1 sequence (P01116 1-186 isoform P01116-2 G12C limits assumed): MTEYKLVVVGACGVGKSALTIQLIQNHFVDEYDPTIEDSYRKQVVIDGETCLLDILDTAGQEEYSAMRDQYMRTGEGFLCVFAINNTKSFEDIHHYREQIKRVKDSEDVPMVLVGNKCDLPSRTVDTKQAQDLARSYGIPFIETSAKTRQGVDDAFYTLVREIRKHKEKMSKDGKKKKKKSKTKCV

Compound: C=CC(=O)N1CCN(c2nc(OCCN3CCC(CCOCC(=O)N[C@H](C(=O)N4C[C@H](O)C[C@H]4C(=O)N[C@@H](C)c4ccc(-c5scnc5C)cc4)C(C)(C)C)CC3)nc3c(F)c(-c4cc(O)cc5ccccc45)c(Cl)cc23)CC1 [Compound 64, (2S,4R)-1-[(2S)-2-(2-{2-[l-(2-{[6-chloro-8-fluoro-7-(3-hydroxynaphthalen-1-yl)-4-[4-(prop-2-enoyl)piperazin-1-yl]quinazolin-2-yl]oxy}ethyl)piperidin-4-yl]ethoxy}acetamido)-3,3-dimethylbutanoyl]-4-hydroxy-N-[(1S)-1-[4-(4-methyl-1,3-thiazol-5-yl)phenyl]ethyl]pyrrolidine-2-carboxamide]
- Dmax (HiBit-KRAS^G12C [1]; [3]): < 35%
- Dmax (HiBit-KRAS^G12C [1]; [4]): 35 to 70%
- Dmax (HiBit-KRAS^G12C [2]; [5]): 35 to 70%
- Dmax (HiBit-KRAS^G12C [2]; [6]): 35 to 70%
- DC50 (HiBit-KRAS^G12C [2]; [7]): 100 to 1000 nM

Compound: C=CC(=O)N1CCN(c2nc(OCCN3CCC(COCC(=O)N[C@H](C(=O)N4C[C@H](O)C[C@H]4C(=O)N[C@@H](C)c4ccc(-c5scnc5C)cc4)C(C)(C)C)CC3)nc3c(F)c(-c4cc(O)cc5ccccc45)c(Cl)cc23)C[C@@H]1CC#N (atropisomer, axis not shown) [Compound 110, (2S,4R)-1-[(2S)-2-[2-({1-[2-({6-chloro-4-[(3S)-3-(cyanomethyl)-4-(prop-2-enoyl)piperazin-1-yl]-8-fluoro-7-(3-hydroxynaphthalen-1-yl)quinazolin-2-yl}oxy)ethyl]piperidin-4-yl}methoxy)acetamido]-3,3-dimethylbutanoyl]-4-hydroxy-N-[(1S)-1-[4-(4-methyl-1,3-thiazol-5-yl)phenyl]ethyl]pyrrolidine-2-carboxamide]
- KRas^G12C-HiBiT (MiaPaCa; 0.5% DMSO) DMax (HiBit-KRAS^G12C [1]; MiaPaCa-2 HiBit-KRas^G12C cells, 0.5% DMSO, maximum degradation): C (C ≤ 35)
- KRas^G12C-HiBiT (SW1573; 0.5% DMSO) Dmax** (HiBit-KRAS^G12C [2]; SW1573 HiBit-KRas^G12C, 0.5% DMSO): C (C ≤ 35)

Compound: C=CC(=O)N1CCN(c2nc(OCCN3CCC(F)(CN(C)CC(=O)N[C@H](C(=O)N4C[C@H](O)C[C@H]4C(=O)N[C@@H](C)c4ccc(-c5scnc5C)cc4)C(C)(C)C)CC3)nc3c(F)c(-c4cc(O)cc5ccccc45)c(Cl)cc23)C[C@@H]1CC#N [Compound 120, (2S,4R)-1-[(2S)-2-{2-[({1-[2-({6-chloro-4-[(3S)-3-(cyanomethyl)-4-(prop-2-enoyl)piperazin-1-yl]-8-fluoro-7-(3-hydroxynaphthalen-1-yl)quinazolin-2-yl}oxy)ethyl]-4-fluoropiperidin-4-yl}methyl)(methyl)amino]acetamido}-3,3-dimethylbutanoyl]-4-hydroxy-N-[(1S)-1-[4-(4-methyl-1,3-thiazol-5-yl)phenyl]ethyl]pyrrolidine-2-carboxamide]
- Dmax (HiBit-KRAS^G12C [1]; MIA PaCa-2, read-out: KRas^G12C-HiBiT (MiaPaCa; 0.5% DMSO) DMax, MiaPaCa-2 HiBit-KRas^G12C cells, 0.5% DMSO, maximum degradation): 35 to 70%
- DC50 (HiBit-KRAS^G12C [1]; [8]): 100 to 1000 nM
- Dmax (HiBit-KRAS^G12C [2]; SW1573, read-out: KRas^G12C-HiBiT (SW1573; 0.5% DMSO) Dmax**, SW1573 HiBit-KRas^G12C, 0.5% DMSO): 35 to 70%
- DC50 (HiBit-KRAS^G12C [2]; [9]): 100 to 1000 nM

Compound: C=CC(=O)N1CCN(c2nc(OC[C@@H]3CCCN3CCCCOCC(=O)N[C@H](C(=O)N3C[C@H](O)C[C@H]3C(=O)N[C@@H](C)c3ccc(-c4scnc4C)cc3)C(C)(C)C)nc3c(F)c(-c4cc(O)cc5ccccc45)c(Cl)cc23)C[C@@H]1CC#N [Compound 100, (2S,4R)-1-[(2S)-2-(2-{4-[(2S)-2-[({6-chloro-4-[(3S)-3-(cyanomethyl)-4-(prop-2-enoyl)piperazin-1-yl]-8-fluoro-7-(3-hydroxynaphthalen-1-yl)quinazolin-2-yl}oxy)methyl]pyrrolidin-1-yl]butoxy}acetamido)-3,3-dimethylbutanoyl]-4-hydroxy-N-[(1S)-1-[4-(4-methyl-1,3-thiazol-5-yl)phenyl]ethyl]pyrrolidine-2-carboxamide]
- Dmax (HiBit-KRAS^G12C [1]; [4]): < 35%
- DC50 (HiBit-KRAS^G12C [1]; [8]): > 1000 nM
- Dmax (HiBit-KRAS^G12C [2]; [6]): < 35%
- DC50 (HiBit-KRAS^G12C [2]; [9]): 100 to 1000 nM

Compound: C=C(F)C(=O)N1CCN(c2nc(OCCN3CCC(COCC(=O)N[C@H](C(=O)N4C[C@H](O)C[C@H]4C(=O)N[C@@H](C)c4ccc(-c5ccnn5C)cc4)C(C)(C)C)CC3)nc3c(F)c(-c4cc(O)cc5ccccc45)c(Cl)cc23)C[C@@H]1CC#N (atropisomer, axis not shown) [Compound 129, (2S,4R)-1-[(2S)-2-[2-({1-[2-({6-chloro-4-[(3S)-3-(cyanomethyl)-4-(2-fluoroprop-2-enoyl)piperazin-1-yl]-8-fluoro-7-(3-hydroxynaphthalen-1-yl)quinazolin-2-yl}oxy)ethyl]piperidin-4-yl}methoxy)acetamido]-3,3-dimethylbutanoyl]-4-hydroxy-N-[(1S)-1-[4-(1-methyl-1H-pyrazol-5-yl)phenyl]ethyl]pyrrolidine-2-carboxamide]
- Dmax (HiBit-KRAS^G12C [1]; [4]): > 70%
- DC50 (HiBit-KRAS^G12C [1]; [8]): 100 to 1000 nM
- Dmax (HiBit-KRAS^G12C [2]; [6]): > 70%
- DC50 (HiBit-KRAS^G12C [2]; [9]): 100 to 1000 nM

Compound: C=CC(=O)N1CCN(c2nc(OCCCN3CCC(OCC(=O)N[C@H](C(=O)N4C[C@H](O)C[C@H]4C(=O)N[C@@H](C)c4ccc(-c5scnc5C)cc4)C(C)(C)C)CC3)nc3c(F)c(-c4cc(O)cc5ccccc45)c(Cl)cc23)CC1 [Compound 25, (2S,4R)-1-[(2S)-2-(2-{[1-(3-{[6-chloro-8-fluoro-7-(3-hydroxynaphthalen-1-yl)-4-[4-(prop-2-enoyl)piperazin-1-yl]quinazolin-2-yl]oxy}propyl)piperidin-4-yl]oxy}acetamido)-3,3-dimethylbutanoyl]-4-hydroxy-N-[(1S)-1-[4-(4-methyl-1,3-thiazol-5-yl)phenyl]ethyl]pyrrolidine-2-carboxamide]
- Dmax (HiBit-KRAS^G12C [1]; [3]): < 35%
- Dmax (HiBit-KRAS^G12C [2]; [5]): 35 to 70%
- DC50 (HiBit-KRAS^G12C [2]; [7]): 100 to 1000 nM

Compound: C=CC(=O)N1CCN(c2nc(O[C@H](C)CN3CC(OCC(=O)N[C@H](C(=O)N4C[C@H](O)C[C@H]4C(=O)N[C@@H](C)c4ccc(-c5scnc5C)cc4)C(C)(C)C)C3)nc3c(F)c(-c4cc(O)cc5ccccc45)c(Cl)cc23)CC1 [Compound 41, (2S,4R)-1-[(2S)-2-[2-({1-[(2R)-2-{[6-chloro-8-fluoro-7-(3-hydroxynaphthalen-1-yl)-4-[4-(prop-2-enoyl)piperazin-1-yl]quinazolin-2-yl]oxy}propyl]azetidin-3-yl}oxy)acetamido]-3,3-dimethylbutanoyl]-4-hydroxy-N-[(1S)-1-[4-(4-methyl-1,3-thiazol-5-yl)phenyl]ethyl]pyrrolidine-2-carboxamide]
- Dmax (HiBit-KRAS^G12C [1]; [3]): < 35%
- DC50 (HiBit-KRAS^G12C [1]; read-out: KRas^G12C-HiBiT (MiaPaCa; 0.1% DMSO) IC50, MiaPaCa-2 HiBit-KRas^G12C cells, 0.1% DMSO): 100 to 1000 nM
- Dmax (HiBit-KRAS^G12C [2]; [5]): 35 to 70%
- DC50 (HiBit-KRAS^G12C [2]; [7]): > 1000 nM

Compound: C=CC(=O)N1CCN(c2nc(O[C@H](C)CN3CCC(OCCOCC(=O)N[C@H](C(=O)N4C[C@H](O)C[C@H]4C(=O)N[C@@H](C)c4ccc(-c5scnc5C)cc4)C(C)(C)C)CC3)nc3c2CCN(c2cc(O)cc4ccccc24)C3)C[C@@H]1CC#N [Compound 31, (2S,4R)-1-[(2S)-2-{2-[2-({1-[(2R)-2-({4-[(3S)-3-(cyanomethyl)-4-(prop-2-enoyl)piperazin-1-yl]-7-(3-hydroxynaphthalen-1-yl)-5H,6H,7H,8H-pyrido[3,4-d]pyrimidin-2-yl}oxy)propyl]piperidin-4-yl}oxy)ethoxy]acetamido}-3,3-dimethylbutanoyl]-4-hydroxy-N-[(1S)-1-[4-(4-methyl-1,3-thiazol-5-yl)phenyl]ethyl]pyrrolidine-2-carboxamide]
- Dmax (HiBit-KRAS^G12C [1]; [3]): < 35%
- Dmax (HiBit-KRAS^G12C [1]; [4]): < 35%
- Dmax (HiBit-KRAS^G12C [2]; [5]): 35 to 70%
- Dmax (HiBit-KRAS^G12C [2]; [6]): 35 to 70%
- DC50 (HiBit-KRAS^G12C [2]; [7]): > 1000 nM
